From patent US9757372B2, “Toll-like receptor 4 antagonists and use in autoimmune liver diseases” (TAIWANJ PHARMACEUTICALS CO., LTD., priority 2015, dated 2017)

Experiments:
Con A-induced hepatitis = assay: Concanavalin A hepatitis in mouse (murine model of AIH); format: in vivo
[1] = tested on: liver NK cells, NKT cells and mononuclear cells; assay: Murine model of primary biliary cirrhosis (2-OA-BSA and α-GalCer immunized C57BL/6 mice); format: in vivo, mouse; settings: 50 mg/kg bid oral; for effect on elevated liver NK cells: week 4 through week 10 (FIG. 3); for effect on elevated liver NKT cells: week 4 through week 10 (FIG. 4); for effect on elevated liver mononuclear cells: week 4 through week 10 (not shown)
Excerpt: C57BL/6 mice of 8-10 weeks old were immunized with 2-OA-BSA and α-GalCer at week 0, followed by booster injections at 2, 4, and 8. […] Each value represents individual animals. Some animals were lost due to lunging.

TLR4 [2] = target: T1, TLR4 (Homo sapiens, UniProt O00206+Q9Y6Y9); settings: Hutchinson et al., Eur J Neurosci. 28:20-29, 2008; cited from earlier work
Target sequence in this assay (O00206 24-839, species assumed): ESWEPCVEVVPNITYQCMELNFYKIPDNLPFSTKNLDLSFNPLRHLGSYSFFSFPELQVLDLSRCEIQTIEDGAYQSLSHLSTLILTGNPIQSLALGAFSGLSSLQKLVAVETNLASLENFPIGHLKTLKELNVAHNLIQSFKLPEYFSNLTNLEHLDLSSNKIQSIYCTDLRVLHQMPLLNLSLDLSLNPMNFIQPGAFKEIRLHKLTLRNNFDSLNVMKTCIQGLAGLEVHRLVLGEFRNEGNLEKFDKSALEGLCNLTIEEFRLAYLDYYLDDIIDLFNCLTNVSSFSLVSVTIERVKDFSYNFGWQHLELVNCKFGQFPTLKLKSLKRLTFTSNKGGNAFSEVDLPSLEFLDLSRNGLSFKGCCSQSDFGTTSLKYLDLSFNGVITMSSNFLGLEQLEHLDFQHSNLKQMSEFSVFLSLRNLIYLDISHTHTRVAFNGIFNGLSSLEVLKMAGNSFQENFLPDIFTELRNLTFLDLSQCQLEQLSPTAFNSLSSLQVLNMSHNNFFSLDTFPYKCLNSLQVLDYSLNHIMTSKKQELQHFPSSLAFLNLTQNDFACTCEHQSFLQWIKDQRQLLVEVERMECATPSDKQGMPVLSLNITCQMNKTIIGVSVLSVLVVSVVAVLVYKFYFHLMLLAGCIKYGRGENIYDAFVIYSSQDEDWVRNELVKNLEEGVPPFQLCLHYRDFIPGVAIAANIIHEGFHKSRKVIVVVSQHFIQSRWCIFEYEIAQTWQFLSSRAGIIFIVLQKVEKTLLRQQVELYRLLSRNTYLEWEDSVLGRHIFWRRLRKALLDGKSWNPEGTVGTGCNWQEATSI
Target sequence in this assay (Q9Y6Y9 17-160 limits assumed, species assumed): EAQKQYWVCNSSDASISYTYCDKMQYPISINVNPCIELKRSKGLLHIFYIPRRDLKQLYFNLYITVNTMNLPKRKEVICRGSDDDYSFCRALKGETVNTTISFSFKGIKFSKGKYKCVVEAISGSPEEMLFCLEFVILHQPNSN

TLR4 [3] = target: T1, TLR4; assay: Inhibition of TLR4 activation: NF-κB-inducible SEAP reporter, antagonist assay with LPS; format: cell-based; set-up: expressed in transfected cells; host or cells: HEK293
Description: The secreted alkaline phosphatase reporter is under the control of a promoter inducible by the transcription factor NF-κB. TLR stimulation in the screening is tested by assessing NF-κB activation in the HEK293 cells expressing a given TLR. This reporter gene allows the monitoring of signaling through the TLR, based on the activation of NF-κB. In a 96-well plate (200μL total volume) containing the appropriate cells (25,000-50,000 cells/well), we add 20μL of your sample or the positive control ligands to the wells. For the antagonist assay, the samples are incubated with the cells for 30 minutes prior to adding the appropriate stimulating ligand. The media we add to the wells is designed for the detection of NF-κB induced SEAP expression. After a 16-20 hr incubation we read the OD at 650 nm on a Beckman Coulter AD 340C Absorbance Detector.
Target sequence in this assay (O00206 24-839): as the sequence (O00206 24-839, species assumed) above
Target sequence in this assay (Q9Y6Y9 17-160 limits assumed): as the sequence (Q9Y6Y9 17-160 limits assumed, species assumed) above

[4] = 20 mg/kg, 9 hours post Con A challenge, P<0.05 vs vehicle
[5] = 50 mg/kg PO, result in words (FIG. 2)

SMILES | reduction of IL-5 in the liver (Con A-induced hepatitis; [4]) | reduction of IL-6 in the liver (Con A-induced hepatitis; [4]) | effect on elevated liver NK cells [1] | effect on elevated liver NKT cells [1] | effect on elevated liver mononuclear cells [1] | reported TLR4 antagonist (TLR4 [2]) | % of Inhibition of NF-κB (TLR4 [3]; HEK293 cells expressing TLR4, LPS 50 pg/mL, compound 10 μM) | inhibition of LPS-induced TLR4 activation (TLR4 [3]; at various concentrations) | inhibition of Con A-induced elevation of ALT (Con A-induced hepatitis; [5]) | inhibition of Con A-induced elevation of AST (Con A-induced hepatitis; [5]) | reduction of IL-5 in the serum (Con A-induced hepatitis; 50 mg/kg, 6 hours post Con A challenge) | reduction of IL-5 in the liver (Con A-induced hepatitis; 50 mg/kg, 24 hours post Con A challenge)
O=C1CC[C@@]2(O)[C@H]3Cc4ccc(O)c5c4[C@@]2(CCN3CC2CC2)[C@H]1O5 [Compound A, naltrexone] | 21% | 32% | suppressed | suppressed | suppressed | TLR4 antagonist | – | – | – | – | – | –
C=C1CC[C@@]2(O)[C@H]3Cc4ccc(O)c5c4[C@@]2(CCN3CC2CC2)[C@H]1O5 [Compound B, nalmefene] | – | – | suppressed | suppressed | suppressed | – | 21% | weak inhibition | significant (P<0.05) inhibition | significant (P<0.05) inhibition | 64% | 16%
COc1ccc2c(c1)[C@@]13CCCC[C@H]1[C@@H](C2)NCC3 [Compound C, 3-methoxymorphinan] | – | – | suppressed | suppressed | suppressed | – | – | – | – | – | – | –
Oc1ccc2c(c1)[C@@]13CCCC[C@H]1[C@@H](C2)NCC3 [Compound D, 3-hydroxymorphinan] | – | – | suppressed | suppressed | suppressed | – | – | – | – | – | – | –
